Laboratory results reported in ChEMBL document CHEMBL1143875, “Synthesis and structure-activity relationships of thiadiazole-derivatives as potent and orally active peroxisome proliferator-activated receptors alpha/delta dual agonists” (Bioorg Med Chem, 2008).
The source made the active and inactive calls. The rule behind the calls is not given here.

Columns and labels:
[1] = target: T1, Peroxisome proliferator-activated receptor alpha (Homo sapiens) (UniProt Q07869); assay: Agonist activity at human PPARalpha-Gal4 in HEK293 cells by luciferase reporter assay relative to (S)-2-{2-[1-ethyl-3-(4-trifluoro-methoxyphenyl)ureido]indan-5-ylsulfanyl}-2-methylpropionic acid; assay type: functional, cell-based
T1 sequence (whole entry): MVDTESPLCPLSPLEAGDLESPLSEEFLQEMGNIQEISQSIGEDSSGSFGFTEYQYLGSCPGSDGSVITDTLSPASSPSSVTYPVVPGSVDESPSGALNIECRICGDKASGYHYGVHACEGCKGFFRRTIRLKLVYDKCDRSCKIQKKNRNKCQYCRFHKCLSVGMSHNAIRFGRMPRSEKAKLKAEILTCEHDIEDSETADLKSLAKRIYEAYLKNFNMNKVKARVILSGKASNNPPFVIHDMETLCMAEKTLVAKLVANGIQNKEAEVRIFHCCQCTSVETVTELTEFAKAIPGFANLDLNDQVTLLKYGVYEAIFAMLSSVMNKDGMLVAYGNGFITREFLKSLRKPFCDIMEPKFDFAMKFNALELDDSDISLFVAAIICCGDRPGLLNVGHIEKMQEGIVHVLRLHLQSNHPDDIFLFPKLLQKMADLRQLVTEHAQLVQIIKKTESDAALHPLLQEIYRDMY

[2] = target: T2, Peroxisome proliferator-activated receptor alpha (Homo sapiens, UniProt Q07869); assay: Agonist activity at human PPARalpha-Gal4 in HEK293 cells by luciferase reporter assay; assay type: functional, cell-based
T2 sequence (Q07869 whole entry): T1 sequence (whole entry)

[3] = target: T3, Peroxisome proliferator-activated receptor delta (Homo sapiens, UniProt Q03181); assay: Agonist activity at human PPARdelta-Gal4 in HEK293 cells by luciferase reporter assay; assay type: functional, cell-based
T3 sequence (Q03181 whole entry): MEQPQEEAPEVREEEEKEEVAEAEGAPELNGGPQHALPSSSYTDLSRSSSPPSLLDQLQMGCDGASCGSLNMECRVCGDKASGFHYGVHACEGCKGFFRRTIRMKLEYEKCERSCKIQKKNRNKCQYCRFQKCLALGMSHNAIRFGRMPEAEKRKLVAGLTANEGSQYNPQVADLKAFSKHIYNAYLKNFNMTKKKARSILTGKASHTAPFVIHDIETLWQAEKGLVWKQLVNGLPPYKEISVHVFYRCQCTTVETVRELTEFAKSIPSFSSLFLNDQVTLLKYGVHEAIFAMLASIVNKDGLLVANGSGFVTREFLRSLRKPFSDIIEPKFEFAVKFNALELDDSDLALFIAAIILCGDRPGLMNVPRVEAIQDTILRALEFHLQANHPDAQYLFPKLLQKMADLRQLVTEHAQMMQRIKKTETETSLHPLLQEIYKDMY

[4] = target: T4, Peroxisome proliferator-activated receptor gamma (Homo sapiens, UniProt P37231); assay: Agonist activity at human PPARgamma-Gal4 in HEK293 cells by luciferase reporter assay; assay type: functional, cell-based
T4 sequence (P37231 whole entry): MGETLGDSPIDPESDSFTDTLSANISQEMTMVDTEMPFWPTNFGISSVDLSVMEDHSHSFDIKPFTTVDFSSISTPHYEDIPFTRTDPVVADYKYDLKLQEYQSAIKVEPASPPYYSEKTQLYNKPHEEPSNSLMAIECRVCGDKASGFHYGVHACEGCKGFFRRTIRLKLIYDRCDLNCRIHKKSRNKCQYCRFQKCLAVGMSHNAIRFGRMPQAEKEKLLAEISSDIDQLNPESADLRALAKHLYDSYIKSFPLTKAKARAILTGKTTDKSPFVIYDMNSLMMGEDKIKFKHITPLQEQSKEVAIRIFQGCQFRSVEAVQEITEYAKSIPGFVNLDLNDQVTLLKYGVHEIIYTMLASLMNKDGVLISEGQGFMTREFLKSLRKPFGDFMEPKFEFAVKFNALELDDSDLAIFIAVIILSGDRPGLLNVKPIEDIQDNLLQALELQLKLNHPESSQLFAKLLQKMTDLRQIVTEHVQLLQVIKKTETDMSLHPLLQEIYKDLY

[5] = target: T5, Bile acid receptor (Homo sapiens) (UniProt Q96RI1); assay: Activity at farnesoid X receptor
T5 sequence (whole entry): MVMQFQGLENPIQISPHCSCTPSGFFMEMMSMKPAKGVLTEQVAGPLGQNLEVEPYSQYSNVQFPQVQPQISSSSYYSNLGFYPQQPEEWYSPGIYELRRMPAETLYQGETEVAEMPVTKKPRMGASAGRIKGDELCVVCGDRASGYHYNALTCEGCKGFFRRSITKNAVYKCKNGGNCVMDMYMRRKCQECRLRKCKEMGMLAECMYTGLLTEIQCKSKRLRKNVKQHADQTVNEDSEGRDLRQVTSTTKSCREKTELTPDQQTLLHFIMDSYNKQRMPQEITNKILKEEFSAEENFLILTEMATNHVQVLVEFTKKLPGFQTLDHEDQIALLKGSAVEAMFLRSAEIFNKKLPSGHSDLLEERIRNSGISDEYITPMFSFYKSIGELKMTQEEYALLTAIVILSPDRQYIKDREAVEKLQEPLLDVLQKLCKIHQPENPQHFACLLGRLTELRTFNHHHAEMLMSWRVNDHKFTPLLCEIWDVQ

[6] = target: T6, Glucocorticoid receptor (Homo sapiens) (UniProt P04150); assay: Activity at glucocorticoid receptor
T6 sequence (whole entry): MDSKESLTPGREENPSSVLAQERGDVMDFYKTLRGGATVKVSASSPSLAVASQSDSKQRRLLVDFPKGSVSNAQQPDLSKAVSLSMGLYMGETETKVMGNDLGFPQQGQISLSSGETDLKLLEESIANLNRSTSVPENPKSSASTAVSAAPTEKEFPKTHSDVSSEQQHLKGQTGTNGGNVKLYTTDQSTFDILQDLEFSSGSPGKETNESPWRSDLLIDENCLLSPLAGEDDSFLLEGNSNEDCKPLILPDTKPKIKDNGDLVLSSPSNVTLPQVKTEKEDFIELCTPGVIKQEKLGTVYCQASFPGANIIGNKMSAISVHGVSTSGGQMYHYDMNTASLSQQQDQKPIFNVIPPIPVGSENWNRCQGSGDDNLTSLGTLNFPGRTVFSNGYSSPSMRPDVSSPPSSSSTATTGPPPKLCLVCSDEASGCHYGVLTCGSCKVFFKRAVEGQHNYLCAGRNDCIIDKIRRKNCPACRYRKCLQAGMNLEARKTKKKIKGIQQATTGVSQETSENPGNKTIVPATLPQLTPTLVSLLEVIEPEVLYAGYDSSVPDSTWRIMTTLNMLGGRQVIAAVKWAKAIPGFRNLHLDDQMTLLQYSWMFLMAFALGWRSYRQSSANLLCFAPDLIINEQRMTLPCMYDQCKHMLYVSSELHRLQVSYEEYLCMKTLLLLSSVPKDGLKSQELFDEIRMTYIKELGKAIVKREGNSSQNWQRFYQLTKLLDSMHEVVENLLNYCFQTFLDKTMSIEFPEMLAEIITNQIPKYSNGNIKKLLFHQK

[7] = Activity at liver X receptor
[8] = Activity at retinoic acid receptor
[9] = Activity at retinoic acid X receptor

Row | Efficacy [1] | Structure (SMILES) | other results
1 | 83% | Cc1cc(OCc2nc(-c3ccc(Cl)c(Cl)c3)ns2)ccc1OC(C)(C)C(=O)O | 
2 | 101% | Cc1cc(OCc2nc(-c3ccc(OC(F)(F)F)c(Cl)c3)ns2)ccc1OC(C)(C)C(=O)O | 
3 | 71% | Cc1cc(SCCc2nc(-c3ccc(Cl)c(Cl)c3)ns2)ccc1OC(C)(C)C(=O)O | EC50 [3]: 9 nM; EC50 [4]: 815 nM
4 | 75% | Cc1ccc(-c2nsc(COc3ccc(OC(C)(C)C(=O)O)c(C)c3)n2)cc1Cl | 
5 | 58% | Cc1ccc(-c2nsc(COc3ccc(OC(C)(C)C(=O)O)c(C)c3)n2)cc1C | 
6 | 65% | Cc1cc(OCc2nc(-c3ccc(C(F)(F)F)c(F)c3)ns2)ccc1OC(C)(C)C(=O)O | EC50 [2]: 86 nM
7 | 80% | Cc1cc(OCc2nc(-c3ccc(OC(F)(F)F)cc3)ns2)ccc1OC(C)(C)C(=O)O | 
8 | 74% | Cc1ccc(-c2nsc(CSc3ccc(OC(C)(C)C(=O)O)c(C)c3)n2)cc1Cl | EC50 [3]: 25 nM; EC50 [2]: 70 nM
9 | 71% | Cc1cc(OCc2nc(-c3ccc(C(F)(F)F)cc3)ns2)ccc1OC(C)(C)C(=O)O | 

The remaining lines, values behind:

Row | Structure (SMILES) | Efficacy [1] | other results
10 | Cc1cc(SCc2nc(-c3ccc(C(F)(F)F)cc3)ns2)ccc1OCC(=O)O | 42% | 
11 | Cc1cc(SCc2cc(-c3ccc(C(F)(F)F)cc3)ns2)ccc1OCC(=O)O | 43% | EC50 [2]: 1290 nM
12 | Cc1cc(SCCc2nc(-c3ccc(C(F)(F)F)cc3)ns2)ccc1OC(C)(C)C(=O)O | 65% | 
13 | CC(C)(Oc1ccc(SCc2nc(-c3ccc(C(F)(F)F)cc3)ns2)cc1)C(=O)O |  | EC50 [3]: 20 nM; EC50 [2]: 155 nM; EC50 [4]: > 3000 nM
14 | Cc1cc(SCc2nc(-c3ccc(OC(F)(F)F)cc3)ns2)ccc1OC1(C(=O)O)CCCC1 | 31% | 
15 | Cc1cc(SCc2nsc(-c3ccc(OC(F)(F)F)cc3)n2)ccc1OC(C)(C)C(=O)O | 47% | 
16 | Cc1cc(SCc2cc(-c3ccc(C(F)(F)F)cc3)on2)ccc1OCC(=O)O | 41% | 
17 | Cc1cc(SCc2nc(-c3ccc(C(F)(F)F)c(F)c3)ns2)ccc1OC(C)(C)C(=O)O | 53% | EC50 [3]: 5 nM
18 | Cc1cc(SCc2nsc(-c3ccc(C(F)(F)F)cc3)n2)ccc1OC(C)(C)C(=O)O | 38% | 
19 | Cc1cc(SCc2nc(-c3ccc(OC(F)(F)F)cc3)ns2)ccc1OC(C)(C)C(=O)O | 44% | Activity [5]: inactive; Activity [6]: inactive; Activity [7]: inactive; Activity [8]: inactive; Activity [9]: inactive
20 | Cc1cc(SCc2cc(-c3ccc(C(F)(F)F)cc3)sn2)ccc1OCC(=O)O | 43% | 
21 | Cc1cc(SCc2nc(-c3ccc(OC(F)(F)F)c(Cl)c3)ns2)ccc1OC(C)(C)C(=O)O | 73% | EC50 [3]: 3 nM
22 | Cc1ccc(-c2nsc(CSc3ccc(OC(C)(C)C(=O)O)c(C)c3)n2)cc1C | 45% | EC50 [4]: > 3000 nM
23 | Cc1cc(SCc2nc(-c3ccc(C(F)(F)F)cc3)ns2)ccc1OC(C)(C)C(=O)O | 51% | 
24 | Cc1cc(SCc2nc(-c3ccc(Cl)cc3)ns2)ccc1OC(C)(C)C(=O)O | 38% | 
25 | Cc1cc(SCc2nc(-c3ccc(Cl)cc3Cl)ns2)ccc1OC(C)(C)C(=O)O | 33% | 
